pIC50: −log10 of the molar value.
Each compound was assayed against human PAD4 (Homo sapiens (Human), UniProt Q9UM07) (assay: In Vitro PAD4 BAEE Biochemical Assay). Conditions: human PAD4, BAEE substrate; 5 nM PAD4, 2 mM calcium chloride, 3 mM BAEE; geometric mean of multiple experiments.
Outline: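 Recombinant human PAD4 (His-SUMO tag removed, E. coli-expressed), 5 nM, preincubated with compound and 2 mM CaCl2 30 min at 25 °C in MOPS pH 7.6 with DTT; 3 mM BAEE added for 2 h at 25 °C, EDTA stop. Released ammonia detected by o-phthalaldehyde/DTT fluorescence (ex 405, em 535 nm).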

Sequence of human PAD4 (Q9UM07 2-663): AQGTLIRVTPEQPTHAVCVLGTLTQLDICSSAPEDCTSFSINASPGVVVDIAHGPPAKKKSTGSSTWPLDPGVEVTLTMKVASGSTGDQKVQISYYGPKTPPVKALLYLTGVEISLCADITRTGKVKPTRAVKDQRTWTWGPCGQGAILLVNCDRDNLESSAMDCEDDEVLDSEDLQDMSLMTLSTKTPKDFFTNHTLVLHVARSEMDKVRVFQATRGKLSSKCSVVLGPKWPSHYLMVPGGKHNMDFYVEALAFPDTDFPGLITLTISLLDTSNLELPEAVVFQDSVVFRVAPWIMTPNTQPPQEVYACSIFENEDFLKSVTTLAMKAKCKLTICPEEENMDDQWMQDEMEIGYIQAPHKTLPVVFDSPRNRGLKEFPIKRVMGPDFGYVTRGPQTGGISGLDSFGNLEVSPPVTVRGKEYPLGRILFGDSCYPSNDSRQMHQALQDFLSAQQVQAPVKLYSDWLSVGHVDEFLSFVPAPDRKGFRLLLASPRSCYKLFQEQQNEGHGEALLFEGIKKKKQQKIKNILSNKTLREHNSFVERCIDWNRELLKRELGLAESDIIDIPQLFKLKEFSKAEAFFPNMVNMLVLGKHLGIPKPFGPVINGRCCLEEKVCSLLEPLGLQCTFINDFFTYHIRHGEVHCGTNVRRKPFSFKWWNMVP

Structure (SMILES) | pIC50
CN(c1ccc2cc(-c3nc4cc(C(=O)N5[C@H]6CC[C@@H]5[C@H](N)C6)cc5c4n3CCO5)n(CC3CC3)c2n1)S(C)(=O)=O [Example 90, N-(2-(7-((1R,2R,4S)-2-amino-7-azabicyclo[2.2.1]heptane-7-carbonyl)-3,4-dihydro-5-oxa-1,2a-diazaacenaphthylen-2-yl)-1-(cyclopropylmethyl)-1H-pyrrolo [2,3-b]pyridin-6-yl)-N-methylmethanesulfonamide] | 6.67
COc1cc(C(=O)N[C@H]2CCNC2)cc2nc(-c3cc4ccc(N(C(F)F)S(C)(=O)=O)nc4n3CC3CC3)n(C)c12 [Example 88, (S)-2-(1-(cyclopropylmethyl)-6-((N-(difluoromethyl)methyl)sulfonamido)-1H-pyrrolo[2,3-b]pyridin-2-yl)-7-methoxy-1-methyl-N-(pyrrolidin-3-yl)-1H-benzo[d]imidazole-5-carboxamide] | 4.30
COc1cc(C(=O)N2CCC3(CCC3N)C2)cc2nc(-c3cc4ccc(N(C(F)F)S(C)(=O)=O)nc4n3CC3CC3)n(C)c12 (centres unmarked) [Example 66, N-(2-(5-(1-amino-6-azaspiro[3.4]octane-6-carbonyl)-7-methoxy-1-methyl-1H-benzo[d]imidazol-2-yl)-1-(cyclopropylmethyl)-1H-pyrrolo[2,3-b]pyridin-6-yl)-N-(difluoromethyl) methanesulfonamide] | 4.66
COc1cc(C(=O)N2[C@H]3CC[C@@H]2[C@H](N)C3)cc2nc(-c3cc4ccc([C@@H](C)NC(=O)C(C)(C)C)nc4n3CC3CC3)n(C3CC3)c12 [Example 127, N-((R)-1-(2-(5-((1R,2R,4S)-2-amino-7-azabicyclo[2.2.1]heptane-7-carbonyl)-1-cyclopropyl-7-methoxy-1H-benzo[d]imidazol-2-yl)-1-(cyclopropylmethyl)-1H-pyrrolo[2,3-b]pyridin-6-yl)ethyl)pivalamide] | 7.20
COc1cc(C(=O)N2[C@H]3CC[C@@H]2[C@H](N)C3)cc2nc(-c3cc4ccc([C@@H](C)NS(=O)(=O)c5cnn(C)c5)nc4n3CC3CC3)n(C)c12 [Example 241, N-((R)-1-(2-(5-((1R,2R,4S)-2-amino-7-azabicyclo[2.2.1]heptane-7-carbonyl)-7-methoxy-1-methyl-1H-benzo[d]imidazol-2-yl)-1-(cyclopropylmethyl)-1H-pyrrolo[2,3-b]pyridin-6-yl)ethyl)-1-methyl-1H-pyrazole-4-sulfonamide] | 7.12
Cc1cc2c(cc1C(=O)N1CCC[C@@H](N)C1)nc(-c1cc3ccc(N(C(F)F)S(C)(=O)=O)nc3n1CC1CC1)n2C1CC1 [Example 60, (R)-N-(2-(5-(3-aminopiperidine-1-carbonyl)-1-cyclopropyl-6-methyl-1H-benzo[d]imidazol-2-yl)-1-(cyclopropylmethyl)-1H-pyrrolo[2,3-b]pyridin-6-yl)-N-(difluoromethyl) methanesulfonamide] | 5.66
COc1cc(C(=O)N2[C@H]3CC[C@@H]2[C@H](N)C3)cc2nc(-c3cc4ccc([C@H]5CCCN5C(C)=O)nc4n3CC3CC3)n(C)c12 [Example 247, 1-((R)-2-(2-(5-((1R,2R,4S)-2-amino-7-azabicyclo[2.2.1]heptane-7-carbonyl)-7-methoxy-1-methyl-1H-benzo[d]imidazol-2-yl)-1-(cyclopropylmethyl)-1H-pyrrolo[2,3-b]pyridin-6-yl)pyrrolidin-1-yl)ethan-1-one] | 7.44

Second part, the compound after the results:

pIC50 | Structure (SMILES)
7.19 | COc1cc(C(=O)N2C[C@H](N)CCN2C)cc2nc(-c3cc4ccc([C@@H](C)NC(=O)C5(C)CC5)nc4n3CC3CC3)n(C)c12 [Example 200, N-((R)-1-(2-(5-((R)-5-amino-2-methylhexahydropyridazine-1-carbonyl)-7-methoxy-1-methyl-1H-benzo[d]imidazol-2-yl)-1-(cyclopropylmethyl)-1H-pyrrolo[2,3-b]pyridin-6-yl)ethyl)-1-methylcyclopropane-1-carboxamide]
6.91 | COc1cc(C(=O)N2C[C@H](N)CCN2C)cc2nc(-c3cc4ccc([C@@H](C)NC(=O)c5ccccc5C)nc4n3CC3CC3)n(C)c12 [Example 194, N-((R)-1-(2-(5-((R)-5-amino-2-methylhexahydropyridazine-1-carbonyl)-7-methoxy-1-methyl-1H-benzo[d]imidazol-2-yl)-1-(cyclopropylmethyl)-1H-pyrrolo[2,3-b]pyridin-6-yl)ethyl)-2-methylbenzamide]
6.52 | COc1cc(C(=O)N2CC[C@@H](C)[C@@H](N)C2)cc2nc(-c3cc4ccc(N(C5CC5)S(C)(=O)=O)nc4n3CC3CC3)n(C)c12 [Example 34, N-(2-(5-((3R,4R)-3-amino-4-methylpiperidine-1-carbonyl)-7-methoxy-1-methyl-1H-benzo[d]imidazol-2-yl)-1-(cyclopropylmethyl)-1H-pyrrolo [2,3-b]pyridin-6-yl)-N-cyclopropylmethanesulfonamide]
5.93 | COc1cc(C(=O)N2C[C@H](N)CC[C@@H]2C)cc2nc(-c3cc4ccc(N5CCCC5=O)nc4n3CC3CC3)n(C)c12 [Example 279, 1-(2-(5-((2S,5R)-5-amino-2-methylpiperidine-1-carbonyl)-7-methoxy-1-methyl-1H-benzo[d]imidazol-2-yl)-1-(cyclopropylmethyl)-1H-pyrrolo[2,3-b]pyridin-6-yl)pyrrolidin-2-one]
6.63 | CCN(C(=O)OC)c1ccc2cc(-c3nc4cc(C(=O)N5CCC[C@@H](N)C5)cc(OC)c4n3C)n(CC3CC3)c2n1 [Example 111, (R)-methyl (2-(5-(3-aminopiperidine-1-carbonyl)-7-methoxy-1-methyl-1H-benzo[b]imidazol-2-yl)-1-(cyclopropylmethyl)-1H-pyrrolo [2,3-b]pyridin-6-yl) (ethyl)carbamate]
6.74 | COc1cc(C(=O)N2CCC[C@@H](N)C2)cc2nc(-c3cc4ccc(N(CC(F)F)S(C)(=O)=O)nc4n3CC3CC3)n(C)c12 [Example 19, (R)-N-(2-(5-(3-aminopiperidine-1-carbonyl)-7-methoxy-1-methyl-1H-benzo[d]imidazol-2-yl)-1-(cyclopropylmethyl)-1H-pyrrolo [2,3-b]pyridin-6-yl)-N-(2,2-difluoroethyl) methanesulfonamide]
7.23 | COc1cc(C(=O)N2CCC[C@@H](N)C2)cc2nc(-c3cc4ccc(N(C(C)C)S(C)(=O)=O)nc4n3CC3CC3)n(C)c12 [Example 6, (R)-N-(2-(5-(3-aminopiperidine-1-carbonyl)-7-methoxy-1-methyl-1H-benzo[d]imidazol-2-yl)-1-(cyclopropylmethyl)-1H-pyrrolo [2,3-b]pyridin-6-yl)-N-isopropylmethanesulfonamide]
6.87 | COc1cc(C(=O)N2CCC[C@@H](N)C2)cc2nc(-c3cc4ccc(N(C5CCC5)S(C)(=O)=O)nc4n3CC3CC3)n(C)c12 [Example 15, (R)-N-(2-(5-(3-aminopiperidine-1-carbonyl)-7-methoxy-1-methyl-1H-benzo[d]imidazol-2-yl)-1-(cyclopropylmethyl)-1H-pyrrolo [2,3-b]pyridin-6-yl)-N-cyclobutylmethanesulfonamide]
6.34 | COc1cc(C(=O)N2C[C@H](N)CC[C@@H]2C)cc2nc(-c3cc4ccc(-c5cccnc5N5CCOCC5)nc4n3CC3CC3)n(C)c12 [Example 261, ((2S,5R)-5-amino-2-methylpiperidin-1-yl)(2-(1-(cyclopropylmethyl)-6-(2-morpholinopyridin-3-yl)-1H-pyrrolo[2,3-b]pyridin-2-yl)-7-methoxy-1-methyl-1H-benzo[d]imidazol-5-yl)methanone]
7.04 | [2H]C([2H])([2H])C(C(=O)N[C@H](C)c1ccc2cc(-c3nc4cc(C(=O)N5C[C@H](N)CCN5C)cc(OC)c4n3C)n(CC3CC3)c2n1)(C([2H])([2H])[2H])C([2H])([2H])[2H] [Example 189, N-((R)-1-(2-(5-((R)-5-amino-2-methylhexahydropyridazine-1-carbonyl)-7-methoxy-1-methyl-1H-benzo[d]imidazol-2-yl)-1-(cyclopropylmethyl)-1H-pyrrolo[2,3-b]pyridin-6-yl)ethyl)-2,2-bis(methyl-d3)propanamide]
6.69 | COc1cc(C(=O)N2C[C@H](N)CCN2C)cc2nc(-c3cc4ccc([C@@H](C)NC(=O)c5c(C)cccc5C(F)(F)F)nc4n3CC3CC3)n(C)c12 [Example 184, N-((R)-1-(2-(5-((R)-5-amino-2-methylhexahydropyridazine-1-carbonyl)-7-methoxy-1-methyl-1H-benzo[d]imidazol-2-yl)-1-(cyclopropylmethyl)-1H-pyrrolo[2,3-b]pyridin-6-yl)ethyl)-2-methyl-6-(trifluoromethyl)benzamide]

Same assay, conditions: recombinant PAD4 5 nM, 2 mM calcium chloride, 3 mM BAEE substrate; geometric mean of multiple experiments

pIC50 | Structure (SMILES)
6.60 | COc1cc(C(=O)N2C[C@H](N)[C@@H]3CC[C@H]2C3)cc2nc(-c3cc4ccc([C@@H](C)NC(=O)c5cnc(C(F)(F)F)cn5)nc4n3CC3CC3)n(C)c12 [Example 318, N-((R)-1-(2-(5-((1S,4R,5R)-4-amino-2-azabicyclo[3.2.1]octane-2-carbonyl)-7-methoxy-1-methyl-1H-benzo[d]imidazol-2-yl)-1-(cyclopropylmethyl)-1H-pyrrolo[2,3-b]pyridin-6-yl)ethyl)-5-(trifluoromethyl)pyrazine-2-carboxamide]
7.25 | C[C@@H](NC(=O)c1cnn(C2CC2)c1)c1ccc2cc(-c3nc4cc(C(=O)N5C[C@H](N)[C@@H]6CC[C@H]5C6)cc(F)c4n3C3CC3)n(CC3CC3)c2n1 [Example 231, N-((R)-1-(2-(5-((1S,4R,5R)-4-amino-2-azabicyclo[3.2.1]octane-2-carbonyl)-1-cyclopropyl-7-fluoro-1H-benzo[d]imidazol-2-yl)-1-(cyclopropylmethyl)-1H-pyrrolo[2,3-b]pyridin-6-yl)ethyl)-1-cyclopropyl-1H-pyrazole-4-carboxamide]

From US11878965B2, “Inhibitors of peptidylarginine deiminases” (Gilead Sciences, Inc., priority 2020, dated 2024)
